Source: PubChem BioAssay AID248 (DTP/NCI, 2004)
“And” between values parts separate entries of the source, which are not always exact repeats. Equal entries are not always repeated. Inconclusive results and toxic doses are left out.

Tested on: L1210 leukemia ip in BDF1 mice, survival T/C
Assay: NCI In Vivo Anticancer Drug Screen. Data for tumor model L1210 Leukemia (intraperitoneal) in B6D2F1 (BDF1) mice
Details: endpoint: mean survival time, higher = longer survival
How it was run: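 Each compound was tested against a transplantable tumor grown in mice. The endpoint was survival, with treated animals benchmarked against vehicle controls as a simple ratio.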

[1] = dose: 50.0 mg/kg/injection, schedule: Q01DX001 (ip), vehicle: carboxymethylcellulose (CMC)
[2] = dose: 100.0 mg/kg/injection, schedule: Q01DX001 (ip), vehicle: carboxymethylcellulose (CMC)
[3] = dose: 200.0 mg/kg/injection, schedule: Q01DX001 (ip), vehicle: carboxymethylcellulose (CMC)
[4] = dose: 400.0 mg/kg/injection, schedule: Q01DX001 (ip), vehicle: carboxymethylcellulose (CMC)
[5] = dose: 100.0 mg/kg/injection, schedule: Q01DX009 (ip), vehicle: saline with Tween-80
[6] = dose: 200.0 mg/kg/injection, schedule: Q01DX009 (ip), vehicle: saline with Tween-80
[7] = dose: 400.0 mg/kg/injection, schedule: Q01DX009 (ip), vehicle: saline with Tween-80
[8] = dose: 100.0 mg/kg/injection, schedule: Q01DX001 (ip), vehicle: saline
[9] = dose: 200.0 mg/kg/injection, schedule: Q01DX001 (ip), vehicle: saline
[10] = dose: 400.0 mg/kg/injection, schedule: Q01DX001 (ip), vehicle: saline
[11] = dose: 100.0 mg/kg/injection, schedule: Q04DX003 (ip), vehicle: saline with Tween-80
[12] = dose: 200.0 mg/kg/injection, schedule: Q04DX003 (ip), vehicle: saline with Tween-80
[13] = dose: 400.0 mg/kg/injection, schedule: Q04DX003 (ip), vehicle: saline with Tween-80
[14] = dose: 100.0 mg/kg/injection, schedule: Q04DX003 (ip), vehicle: Klucel (hydroxypropylcellulose) (HPC)
[15] = dose: 200.0 mg/kg/injection, schedule: Q04DX003 (ip), vehicle: Klucel (hydroxypropylcellulose) (HPC)
[16] = dose: 100.0 mg/kg/injection, schedule: Q04DX003 (ip), vehicle: saline
[17] = dose: 200.0 mg/kg/injection, schedule: Q04DX003 (ip), vehicle: saline
[18] = dose: 100.0 mg/kg/injection, schedule: Q01DX009 (ip), vehicle: Klucel (hydroxypropylcellulose) (HPC)
[19] = dose: 200.0 mg/kg/injection, schedule: Q01DX009 (ip), vehicle: Klucel (hydroxypropylcellulose) (HPC)
[20] = dose: 400.0 mg/kg/injection, schedule: Q04DX003 (ip), vehicle: Klucel (hydroxypropylcellulose) (HPC)

Compound: O=C(Nc1ccc(NC2=NCCN2)cc1)c1cc(C(=O)Nc2ccc(NC3=NCCN3)cc2)cc([N+](=O)[O-])c1
- T/C (dose: 1.87 mg/kg/injection, schedule: Q01DX Z (ip), vehicle: saline): 113 % of control
- T/C (dose: 3.75 mg/kg/injection, schedule: Q01DX Z (ip), vehicle: saline): 109 % of control
- T/C (dose: 7.5 mg/kg/injection, schedule: Q01DX Z (ip), vehicle: saline): 115 % of control
- T/C (dose: 15.0 mg/kg/injection, schedule: Q01DX Z (ip), vehicle: methylcellulose (MC)): 94 % of control
- T/C (dose: 15.0 mg/kg/injection, schedule: Q01DX Z (ip), vehicle: saline): 105 % of control

Compound: Cc1cccc(NC(=O)N(CCCl)N=O)c1
- T/C (dose: 2.6 mg/kg/injection, schedule: Q01DX009 (ip), vehicle: carboxymethylcellulose (CMC)): 163 % of control
- T/C (dose: 4.0 mg/kg/injection, schedule: Q01DX009 (ip), vehicle: carboxymethylcellulose (CMC)): 164 % of control and 197 % of control
- T/C (dose: 6.0 mg/kg/injection, schedule: Q01DX009 (ip), vehicle: carboxymethylcellulose (CMC)): 150 % of control and 192 % of control
- T/C (dose: 25.0 mg/kg/injection, schedule: Q01DX001 (ip), vehicle: carboxymethylcellulose (CMC)): 101 % of control
- T/C [1]: 86 % of control
- T/C [2]: 86 % of control

Compound: CN(C)C(=O)C(=O)c1cn(C)c2ccccc12
- T/C [1]: 95 % of control
- T/C [2]: 109 % of control
- T/C [3]: 93 % of control
- T/C [4]: 101 % of control

Compound: CC1C=CCP1(C)=O (configuration not stated)
- T/C [5]: 91 % of control
- T/C [6]: 96 % of control
- T/C [7]: 94 % of control

Compound: CC(=O)OCC1C(OC(C)=O)C(OC(C)=O)C(OC(C)=O)N1C(C)=O (configuration not stated)
- T/C (dose: 50.0 mg/kg/injection, schedule: Q01DX001 (ip), vehicle: saline): 98 % of control
- T/C [8]: 95 % of control
- T/C [9]: 98 % of control
- T/C [10]: 98 % of control

Compound: C=CCOCCN1CCN(CCCN2c3ccccc3Sc3ccc(C(F)(F)F)cc32)CC1
- T/C (dose: 0.23 mg/kg/injection, schedule: Q01DX009 (ip), vehicle: saline): 93 % of control
- T/C (dose: 0.35 mg/kg/injection, schedule: Q01DX009 (ip), vehicle: saline): 86 % of control
- T/C (dose: 0.54 mg/kg/injection, schedule: Q01DX009 (ip), vehicle: saline): 98 % of control
- T/C (dose: 1.09 mg/kg/injection, schedule: Q01DX009 (ip), vehicle: saline): 111 % of control
- T/C (dose: 2.18 mg/kg/injection, schedule: Q01DX009 (ip), vehicle: saline): 86 % of control
- T/C (dose: 6.25 mg/kg/injection, schedule: Q04DX003 (ip), vehicle: saline): 101 % of control
- T/C (dose: 12.5 mg/kg/injection, schedule: Q04DX003 (ip), vehicle: saline): 110 % of control
- T/C (dose: 16.0 mg/kg/injection, schedule: Q01DX003 (ip), vehicle: saline): 117 % of control
- T/C (dose: 17.0 mg/kg/injection, schedule: Q04DX003 (ip), vehicle: saline): 101 % of control
- T/C (dose: 25.0 mg/kg/injection, schedule: Q01DX003 (ip), vehicle: saline): 108 % of control
- T/C (dose: 25.0 mg/kg/injection, schedule: Q04DX003 (ip), vehicle: saline): 106 % of control

Compound: COC(=O)c1ccc(OC(=O)Nc2ccccc2[N+](=O)[O-])cc1
- T/C [5]: 97 % of control and 101 % of control
- T/C (dose: 100.0 mg/kg/injection, schedule: Q04DX002 (ip), vehicle: saline with Tween-80): 104 % of control and 110 % of control
- T/C [11]: 107 % of control
- T/C [6]: 96 % of control and 92 % of control
- T/C (dose: 200.0 mg/kg/injection, schedule: Q04DX002 (ip), vehicle: saline with Tween-80): 103 % of control and 104 % of control
- T/C [12]: 113 % of control
- T/C (dose: 400.0 mg/kg/injection, schedule: Q04DX002 (ip), vehicle: saline with Tween-80): 94 % of control
- T/C [13]: 101 % of control

Compound: CC12CC3CC(Br)(C1)CC(C#N)(C3)C2 (configuration not stated)
- T/C (dose: 6.0 mg/kg/injection, schedule: Q04DX002 (ip), vehicle: Klucel (hydroxypropylcellulose) (HPC)): 109 % of control
- T/C (dose: 12.0 mg/kg/injection, schedule: Q04DX002 (ip), vehicle: Klucel (hydroxypropylcellulose) (HPC)): 98 % of control
- T/C (dose: 25.0 mg/kg/injection, schedule: Q04DX002 (ip), vehicle: Klucel (hydroxypropylcellulose) (HPC)): 94 % of control

Compound: COc1ccc(OC(C)=O)c(/C=C\C=O)c1
- T/C [2]: 94 % of control
- T/C [3]: 100 % of control
- T/C [4]: 100 % of control

Compound: N/C(=C\C(=O)c1ccccc1)C(=O)c1ccccc1
- T/C [14]: 103 % of control
- T/C [15]: 108 % of control

Compound: CCOC12c3c4cccc3C(=O)c3cccc(c31)C(=O)c1cccc(c12)C4=O
- T/C [5]: 103 % of control
- T/C [11]: 105 % of control
- T/C [6]: 111 % of control
- T/C [12]: 93 % of control
- T/C [7]: 109 % of control
- T/C [13]: 96 % of control

Compound: O=C1CCCc2c1cc(C1CCCC1)c1ccccc21
- T/C [2]: 92 % of control
- T/C [3]: 95 % of control
- T/C [4]: 98 % of control

Compound: CN(C)/C=N/n1cnnc1
- T/C [16]: 94 % of control
- T/C [17]: 98 % of control
- T/C (dose: 400.0 mg/kg/injection, schedule: Q04DX003 (ip), vehicle: saline): 102 % of control

Compound: CCCCCCCC(=O)Nc1cccc(O)c1
- T/C [11]: 96 % of control
- T/C [12]: 95 % of control
- T/C [13]: 96 % of control

Compound: C=C(C)C#CCN(CCO)C(C)C
- T/C (dose: 75.0 mg/kg/injection, schedule: Q01DX001 (ip), vehicle: other): 96 % of control
- T/C (dose: 150.0 mg/kg/injection, schedule: Q01DX001 (ip), vehicle: other): 96 % of control

Compound: CCCCN=C(NCCCC)OCCCC
- T/C (dose: 11.1 mg/kg/injection, schedule: Q01DX Z (ip), vehicle: saline): 104 % of control
- T/C (dose: 16.6 mg/kg/injection, schedule: Q01DX Z (ip), vehicle: saline): 100 % of control

Compound: O=C(O)c1cc2ccccc2c2c1ccc1ccccc12
- T/C (dose: 50.0 mg/kg/injection, schedule: Q01DX001 (ip), vehicle: Klucel (hydroxypropylcellulose) (HPC)): 92 % of control
- T/C (dose: 100.0 mg/kg/injection, schedule: Q01DX001 (ip), vehicle: Klucel (hydroxypropylcellulose) (HPC)): 93 % of control
- T/C (dose: 200.0 mg/kg/injection, schedule: Q01DX001 (ip), vehicle: Klucel (hydroxypropylcellulose) (HPC)): 93 % of control

Compound: CCOc1ccccc1NC(=O)Nc1ccc(Cl)cc1
- T/C [18]: 97 % of control
- T/C [14]: 100 % of control
- T/C [19]: 103 % of control
- T/C [15]: 96 % of control
- T/C (dose: 400.0 mg/kg/injection, schedule: Q01DX009 (ip), vehicle: Klucel (hydroxypropylcellulose) (HPC)): 101 % of control
- T/C [20]: 100 % of control

Compound: O=c1[nH]c(=O)n(O)c2nc[nH]c12
- T/C [11]: 92 % of control

Compound: c1ccc2c3c([nH]c2c1)C1CC2CCCCC2CN1CC3 (configuration not stated)
- T/C (dose: 75.0 mg/kg/injection, schedule: Q01DX001 (ip), vehicle: saline): 107 % of control
- T/C (dose: 150.0 mg/kg/injection, schedule: Q01DX001 (ip), vehicle: saline): 109 % of control

Compound: O=C(O)CC(NC(=O)OCc1ccccc1)C(=O)O (configuration not stated)
- T/C (dose: 50.0 mg/kg/injection, schedule: Q01DX009 (ip), vehicle: Klucel (hydroxypropylcellulose) (HPC)): 95 % of control
- T/C [18]: 92 % of control
- T/C (dose: 100.0 mg/kg/injection, schedule: Q01DX009 (ip), vehicle: saline): 114 % of control
- T/C [19]: 98 % of control
- T/C (dose: 200.0 mg/kg/injection, schedule: Q01DX009 (ip), vehicle: saline): 113 % of control
- T/C (dose: 400.0 mg/kg/injection, schedule: Q01DX009 (ip), vehicle: saline): 107 % of control

Compound: CC(C)(CO)N=Cc1ccccc1Br
- T/C [8]: 110 % of control
- T/C [9]: 98 % of control
- T/C [10]: 90 % of control

Compound: CCOC(=O)c1cnc2onc(C)c2c1Nc1cccc(C(F)(F)F)c1
- T/C [14]: 90 % of control
- T/C [15]: 97 % of control
- T/C [20]: 101 % of control

Compound: CC[n+]1ccc(-c2ccc(S(=O)(=O)[O-])cc2)o1
- T/C (dose: 50.0 mg/kg/injection, schedule: Q04DX003 (ip), vehicle: saline): 108 % of control
- T/C [2]: 96 % of control
- T/C [8]: 105 % of control
- T/C [16]: 93 % of control
- T/C [3]: 96 % of control
- T/C [9]: 105 % of control
- T/C [17]: 105 % of control
- T/C [4]: 100 % of control
- T/C [10]: 105 % of control

Compound: CC(=O)OCC(=O)[C@@]12OC(C)(C)O[C@@H]1C[C@H]1[C@@H]3CC(C=O)=C4C=C(OCCCl)CC[C@]4(C)[C@@]3(F)[C@@H](O)C[C@@]12C
- T/C [18]: 95 % of control
